In patent US20120238532A1, “TREATMENT OF HUMAN OSTEOSARCOMA” (CEDARS-SINAI MEDICAL CENTER, priority 2009, published 2012):

Key:
[1] = tested on: clonogenic hematopoietic cells; experiment: Colony-forming cell (CFC) assays of bone marrow; settings: day 35, 2 × 10^4 cells/well
Protocol: (§4) Whole blood samples were obtained by submandibular bleeding and serum samples were harvested with serum separator tubes (BD Biosciences). Blood count and serum chemistry results were obtained by the Hemagen Analyst Benchtop Chemistry System (Hemagen Diagnostics, Inc. Columbia, Md.). Colony-forming cell (CFC) assays were performed as previously described (18).

mTOR = mTOR (Homo sapiens, UniProt P42345); experiment: Western blotting, mTOR phosphorylation; format: cell-based; design: endogenous in cells; host or cells: MG-63 and SAOS-2 cells; settings: MG-63 and SAOS-2 cells; at ED50, 2, 9, or 20 hours
Protocol: (§1) Changes in protein level by CuB were checked by Western blotting. […] After 2, 9, and 20 hours of exposure, cells were harvested and immediately lysed with RIPA buffer (Millipore—Upstate, Temecula, Calif.) supplemented with protease inhibitor cocktail (Roche, San Francisco, Calif.), 0.5 mM PMSF (Roche), and 50 mM NaF (Sigma). After 20 minutes of incubation on ice, protein concentrations were measured by Bradford assay with Bio Rad protein assay solution (Bio-Rad, Hercules, Calif.) and samples were adjusted to the same protein concentration. Samples were mixed with 2× Laemmli sample buffer (Bio-Rad) with 5% β-mercaptoethanol (Sigma) and incubated at 95° C. for 10 min to denature the protein. After brief incubation on ice, proteins were separated by SDS-PAGE, transferred to nitrocellulose membrane (Sigma), and blotted with antibodies from either Cell Signaling Technology (Danvers, Mass.) or Santa Cruz Biotechnology (Santa Cruz, Calif.). Target proteins were visualized by Supersignal West Dura Substrate (Thermo-Pierce, Rockford, Ill.). GAPDH protein was used as a loading control.

S6K and 4EBP1 = experiment: Western blotting, downstream targets of mTOR; format: cell-based, human; settings: MG-63 and SAOS-2 cells
Protocol: as §1

Serum chemistry in mice = format: in vivo; settings: day 35
Protocol: as §4

SAOS-2 cells = experiment: MTT assay, SAOS-2 (dose-response, pulse-exposure, combination); format: cell-based, human; settings: pulse-exposed at ED50 for 2, 9, and 20 hours
Protocol: (§2) 7 human OS cell lines (U2OS, G292, MG-63, HT-161, HOS, SAOS-2, and SJSA) were used in the study. Each cell line except HT-161 was obtained from the American Type Culture Collection (ATCC, Rockville, Md.). HT-161 was obtained from Dr. Emil Bogenmann (13). All cell lines were tested and authenticated prior to use according to cell line verification test recommendations by ATCC. OS cell lines were maintained in DMEM medium (Mediatech Inc., Herndon, Va.) supplemented with 10% fetal bovine serum (FBS; Atlanta Biological, Lawrenceville, Ga.) in a humidified incubator at 37° C. supplied with 5% CO2. Only the cells in exponential growth phase were used in the study.
(§3) Cell growth and survival were measured by 3-(4,5-dimethylthiazol-2-yl)-2,5-diphenyltetrazolium bromide (MTT) assay. […] After 48 hours of incubation, 10 μl of 5 mg/ml MTT solution (Sigma-Aldrich, St. Louis, Mo.) was added to each well and incubated further for 2 hours. […] For pulse-exposure experiments, MG-63 and SAOS-2 cells were seeded in 96-well plates and exposed to CuB at their ED50. After 2, 9, and 20 hours of exposure, cells were washed twice with PBS and incubated further in CuB-free media. Cell growth was checked by MTT assay at 24, 48, and 72 hours.
Calcusyn 2.0 (Biosoft, Ferguson, Mo.) was used for CI analysis.

[2] = tested on: human OS cell lines (U2OS, G292, MG-63, HT-161, HOS, SAOS-2, and SJSA); experiment: MTT assay, dose-response in human OS cell lines; format: cell-based
Protocol: as §2, §3

Blood counts in mice = format: in vivo; settings: day 35
Protocol: as §4

[3] = tested on: phospho-mTOR (S2448) and survivin; experiment: Western blots from snap-frozen xenograft tumors; format: in vivo; settings: mice treated with LD-CuB, day 35
Protocol: as §1, with “Target proteins were visualized by Supersignal West Dura Substrate (Thermo-Pierce, Rockford, Ill.). GAPDH protein was used as a loading control.” left out
All animal experiments strictly followed the guidelines of Cedars-Sinai Medical Center and the National Institute of Health (NIH). […] After 24 hours, tumor size was measured, and any outliers were ruled out by one-way analysis of variance (ANOVA) test. […] Body weights were monitored every 2 days. Tumor size was measured every 2 days, and the tumor volume was calculated using the following formula: A (length)×B (width)×C (height)×0.5236 (16). […]

ERK = experiment: Western blotting, ERK phosphorylation; format: cell-based, human; settings: MG-63 and SAOS-2 cells
Protocol: as §1

SMILES: CC(=O)OC(C)(C)/C=C/C(=O)[C@](C)(O)[C@H]1[C@H](O)C[C@@]2(C)[C@@H]3CC=C4[C@H](C[C@H](O)C(=O)C4(C)C)[C@]3(C)C(=O)C[C@]12C [CuB, cucurbitacin B]
- BFU-E, number of colonies ([1]; HD-CuB 1.0 mg/kg): 8.3 ± 1.6
- CFU-GEMM, number of colonies ([1]; HD-CuB 1.0 mg/kg): 3.8 ± 0.8
- CFU-GM, number of colonies ([1]; HD-CuB 1.0 mg/kg): 64.6 ± 4.6
- BFU-E, number of colonies ([1]; LD-CuB 0.5 mg/kg): 9.7 ± 1.4
- CFU-GEMM, number of colonies ([1]; LD-CuB 0.5 mg/kg): 4.2 ± 0.8
- CFU-GM, number of colonies ([1]; LD-CuB 0.5 mg/kg): 69.8 ± 3.0
- mTOR phosphorylation at S2448 and S2481 (mTOR): inhibition of mTOR phosphorylation at S2448 and S2481 without affecting the total level of mTOR
- downstream targets of mTOR (S6K, 4EBP1) (S6K and 4EBP1): Inhibition of downstream targets of mTOR such as S6K and 4EBP1
- CK (Serum chemistry in mice; HD-CuB 1.0 mg/kg): 156.0 ± 33.9 U/l
- albumin (Serum chemistry in mice; HD-CuB 1.0 mg/kg): 3.4 ± 0.1 g/dL
- bilirubin (Serum chemistry in mice; HD-CuB 1.0 mg/kg): 0.06 ± 0.00 mg/dL
- cholesterol (Serum chemistry in mice; HD-CuB 1.0 mg/kg): 172.0 ± 8.5 mg/dL
- creatine (Serum chemistry in mice; HD-CuB 1.0 mg/kg): 0.42 ± 0.25 mg/dL
- globulin (Serum chemistry in mice; HD-CuB 1.0 mg/kg): 1.6 ± 0.2 g/dL
- total protein (Serum chemistry in mice; HD-CuB 1.0 mg/kg): 5.0 ± 0.1 g/dL
- uric acid (Serum chemistry in mice; HD-CuB 1.0 mg/kg): 5.5 ± 0.6 mg/dL
- CK (Serum chemistry in mice; LD-CuB 0.5 mg/kg): 140.5 ± 70.0 U/l
- albumin (Serum chemistry in mice; LD-CuB 0.5 mg/kg): 3.1 ± 0.1 g/dL
- bilirubin (Serum chemistry in mice; LD-CuB 0.5 mg/kg): 0.09 ± 0.04 mg/dL
- cholesterol (Serum chemistry in mice; LD-CuB 0.5 mg/kg): 147.0 ± 5.7 mg/dL
- creatine (Serum chemistry in mice; LD-CuB 0.5 mg/kg): 0.29 ± 0.05 mg/dL
- globulin (Serum chemistry in mice; LD-CuB 0.5 mg/kg): 0.7 ± 0.9 g/dL
- total protein (Serum chemistry in mice; LD-CuB 0.5 mg/kg): 3.7 ± 1.0 g/dL
- uric acid (Serum chemistry in mice; LD-CuB 0.5 mg/kg): 3.7 ± 0.3 mg/dL
- cell death after pulse-exposure (SAOS-2 cells): longer exposure to CuB induced more cell death
- cytotoxic activity in human OS cells [2]: dose- and time-dependent
- Basophils (Blood counts in mice; HD-CuB 1.0 mg/kg): 0.05 ± 0.07 K/μl
- Eosinophils (Blood counts in mice; HD-CuB 1.0 mg/kg): 0.15 ± 0.07 K/μl
- Hb (Blood counts in mice; HD-CuB 1.0 mg/kg): 10.10 ± 0.42 g/dL
- Lymphocytes (Blood counts in mice; HD-CuB 1.0 mg/kg): 2.90 ± 0.71 K/μl
- Monocytes (Blood counts in mice; HD-CuB 1.0 mg/kg): 0.35 ± 0.07 K/μl
- Neutrophills (Blood counts in mice; HD-CuB 1.0 mg/kg): 2.10 ± 0.42 K/μl
- Platelets (Blood counts in mice; HD-CuB 1.0 mg/kg): 651 ± 52.33 K/μl
- RBCs (Blood counts in mice; HD-CuB 1.0 mg/kg): 7.78 ± 0.45 M/μl
- WBCs (Blood counts in mice; HD-CuB 1.0 mg/kg): 5.55 ± 1.34 K/μl
- Basophils (Blood counts in mice; LD-CuB 0.5 mg/kg): 0.00 ± 0.00 K/μl
- Eosinophils (Blood counts in mice; LD-CuB 0.5 mg/kg): 0.01 ± 0.01 K/μl
- Hb (Blood counts in mice; LD-CuB 0.5 mg/kg): 9.60 ± 0.85 g/dL
- Lymphocytes (Blood counts in mice; LD-CuB 0.5 mg/kg): 2.63 ± 0.24 K/μl
- Monocytes (Blood counts in mice; LD-CuB 0.5 mg/kg): 0.18 ± 0.03 K/μl
- Neutrophills (Blood counts in mice; LD-CuB 0.5 mg/kg): 1.42 ± 0.30 K/μl
- Platelets (Blood counts in mice; LD-CuB 0.5 mg/kg): 742 ± 115.97 K/μl
- RBCs (Blood counts in mice; LD-CuB 0.5 mg/kg): 7.21 ± 1.00 M/μl
- WBCs (Blood counts in mice; LD-CuB 0.5 mg/kg): 4.23 ± 0.04 K/μl
- phospho-mTOR (S2448) and survivin in tumors [3]: decreased amount of phospho-mTOR (S2448) and its downstream target survivin
- ERK phosphorylation (ERK): inhibited ERK phosphorylation without changing the total levels of ERK in both cells
